IC50 and Ki data for 18 compounds are collected here from patent US12479827B2, “Heteroaromatic carboxamide derivatives as plasma kallikrein inhibitors” (Boehringer Ingelheim International GmbH, priority 2020, dated 2025).

Common to all, as to type: biochemical
The target of one assay is T1, Human PKK (Homo sapiens, UniProt P03952).
T1 construct: purchased Enzyme Research Laboratories
The experiment in a line: Inhibition of PKK using an endpoint assay (human PKK). To be noted: fluorogenic substrate H-Pro-Phe-Arg-AMC, 1 h room temperature, method names human or rat PKK, table does not say which. Summed up:
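Human PKK inhibition measured in 100 mM Tris, 150 mM NaCl, pH 7.8, 0.1% BSA, 0.05% Tween20, 1% DMSO. Endpoint format: reaction stopped with PPACK II at 1 μM final, fluorescence read at 355 nm excitation/460 nm emission.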

Assay [1] deals with T2, PKK in kaolin activated human platelet poor plasma (Homo sapiens, UniProt P03952).
T2 construct: Platelet poor plasma (PPP) obtained from human wholeblood; from tissue
T2 sequence (P03952 391-638 limits assumed): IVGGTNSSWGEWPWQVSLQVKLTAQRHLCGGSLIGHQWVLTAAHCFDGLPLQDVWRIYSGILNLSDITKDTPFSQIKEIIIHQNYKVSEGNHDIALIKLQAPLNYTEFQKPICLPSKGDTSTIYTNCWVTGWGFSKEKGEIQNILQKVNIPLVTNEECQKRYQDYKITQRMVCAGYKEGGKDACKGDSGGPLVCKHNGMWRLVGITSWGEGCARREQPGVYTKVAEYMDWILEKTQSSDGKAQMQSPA
T2 sequence (P03952 20-390 limits assumed): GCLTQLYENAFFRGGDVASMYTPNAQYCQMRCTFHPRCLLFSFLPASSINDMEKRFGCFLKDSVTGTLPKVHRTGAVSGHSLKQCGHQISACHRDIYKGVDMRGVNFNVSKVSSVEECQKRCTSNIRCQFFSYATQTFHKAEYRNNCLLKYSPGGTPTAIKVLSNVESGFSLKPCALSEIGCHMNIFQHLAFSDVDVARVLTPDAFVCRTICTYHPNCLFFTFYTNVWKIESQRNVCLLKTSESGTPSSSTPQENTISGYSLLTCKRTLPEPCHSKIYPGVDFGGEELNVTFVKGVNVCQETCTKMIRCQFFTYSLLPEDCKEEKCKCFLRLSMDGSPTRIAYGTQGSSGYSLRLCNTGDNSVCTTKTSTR
Put plainly: Inhibition of PKK in kaolin activated human PPP.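 Also: readout is the rate of fluorogenic substrate cleavage in rfu per min.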 To be noted: 25-750 μg/mL kaolin, global fit, text b200 calls the values IC90. As for the experimental part:
Platelet poor plasma (PPP) obtained from human wholeblood, anticoagulated with Na-Citrate, is incubated with various concentrations of the test compound together with either 25, 75, 250, or 750 μg/mL kaolin in assay buffer for 20 min at 37° C. such that for each kaolin dose used a concentration response is obtained for the test compound.

The target of another assay is T3, human TK1 (Homo sapiens, UniProt P06870).
T3 construct: purchased R&D Systems
T3 sequence (P06870 25-262): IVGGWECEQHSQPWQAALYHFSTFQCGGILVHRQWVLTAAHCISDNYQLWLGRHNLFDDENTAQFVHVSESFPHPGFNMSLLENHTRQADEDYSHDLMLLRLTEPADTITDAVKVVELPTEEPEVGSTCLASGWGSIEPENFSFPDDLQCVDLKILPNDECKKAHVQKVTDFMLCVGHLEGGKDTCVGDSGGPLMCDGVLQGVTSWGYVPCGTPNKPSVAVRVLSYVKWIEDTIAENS
Put plainly: Inhibition of TK1 (Ki). To be noted: activated human TK1, substrate H-Pro-Phe-Arg-AMC, 24° C. As for the experimental part:
The ability of compounds of formula (I) to inhibit plasma kallikrein (PKK), Factor XIIa (FXIIa), Factor XIa (FXIa), Factor Xa (FXa), Factor IIa (alpha-thrombin; FIIa), plasmin, trypsin, tissue kallikrein 1 (TK1), Factor VIIa (FVIIa), or FVIIa complexed with Tissue Factor, phospholipids and CaCl2 (FVIIa/TF/PL/CaCl2) is determined using the following biochemical assays in assay buffer (100 mM Tris, 150 mM NaCL, adjusted to a pH of 7.8 with HCl, and containing 0.1% (w/v) BSA and 0.05% (v/v) Tween20) in the presence of 1% (v/v) DMSO:
Prior to the assay, human TK1 (R&D Systems) is activated by incubation with human trypsin (Calbiochem) in a 1:10,000 ratio for 15 min at 37° C. For assaying TK1 inhibitory activity, activated TK1 (31.25 nM or 1 U/mL) is incubated at 24° C. with 0.1 mM fluorogenic substrate H-Pro-Phe-Arg-AMC (11295 from Bachem) and various concentrations of the test compound in assay buffer. Measurements are performed in a kinetic interval every 2nd minute for 16 min using a Spectramax M5 (Molecular Devices) with the following settings of the wavelength excitation of 350 nm and wavelength emission of 450 nm.
The pIC50 values are then fitted using a four-parametric fitting procedure using GraphPad Prism (version 6; GraphPad Software, Inc.). Respective Ki values are obtained by correction of the IC50 values for the respective KM value of the used substrate (see Table A for the obtained KM values of the used substrates) using the following formula:
[formula] Where the IC50 is in molar and the KM value in mM.

T1 sequence (P03952 20-390 limits assumed): as the sequence (P03952 20-390 limits assumed) above
T1 sequence (P03952 391-638 limits assumed): as the sequence (P03952 391-638 limits assumed) above

In the case of `Cn1cnc2c1CC[C@H]2NC(=O)c1cn(Cc2ccc(N3CC4(CC4)C3)nc2C(F)F)nn1` [Example 4, 1-[(6-{5-Azaspiro[2.3]hexan-5-yl}-2-(difluoromethyl)-pyridin-3-yl)methyl]-N-[(4R)-1-methyl-1H,4H,5H,6H-cyclo-penta[d]imidazol-4-yl]-1H-1,2,3-triazole-4-carboxamide], the IC50 on Human PKK amounted to 0.9 nM; in assay [1] it was 184 nM. This compound also had a Ki at human TK1 greater than 10000 nM.
Consider `Cn1cnc2c1CC[C@H]2NC(=O)c1cn(Cc2ccc(N3CC4(CC4)C3)nc2Br)cn1` [Example 16, 1-[(6-{5-Azaspiro[2.3]hexan-5-yl}-2-bromopyridin-3-yl)methyl]-N-[(4R)-1-methyl-1H,4H,5H,6H-cyclopenta[d]imidazol-4-yl]-1H-imidazole-4-carboxamide], for which the IC50 against Human PKK was 0.6 nM; in assay [1] it was 280 nM. Further, the Ki on human TK1 is greater than 10000 nM.
Consider `CCc1nc(N2CC3(CC3)C2)ccc1Cn1cc(C(=O)N[C@@H]2CCc3c2ncn3C)nn1` [Example 20, 1-[(6-{5-Azaspiro[2.3]hexan-5-yl}-2-ethylpyridin-3-yl)methyl]-N-[(4R)-1-methyl-1H,4H,5H,6H-cyclo-penta[d]imidazol-4-yl]-1H-1,2,3-triazole-4-carboxamide], for which the IC50 stood at 0.7 nM on Human PKK and 99 nM in assay [1]. Besides, the inhibition constant Ki on human TK1 was greater than 10000 nM.
For `CCc1nc(N2CC3CC3C2)ccc1Cn1cc(C(=O)N[C@@H]2CCc3c2ncn3C)cn1` (stereo partly drawn) [Example 22, 1-[(6-{3-Azabicyclo[3.1.0]hexan-3-yl}-2-ethylpyridin-3-yl)methyl]-N-[(4R)-1-methyl-1H,4H,5H,6H-cyclopenta[d]imidazol-4-yl]-1H-pyrazole-4-carboxamide], in that order: 0.5 nM, 249 nM and greater than 10000 nM.
In the same order, the values of `Cc1nc(N2CC3CC3C2)ccc1Cn1cnc(C(=O)N[C@@H]2CCc3c2ncn3C)c1` (stereo partly drawn) [Example 23, 1-[(6-{3-Azabicyclo[3.1.0]hexan-3-yl}-2-methylpyridin-3-yl)methyl]-N-[(4R)-1-methyl-1H,4H,5H,6H-cyclopenta[d]imidazol-4-yl]-1H-imidazole-4-carboxamide] are 1.1 nM, 233 nM and greater than 10000 nM.
For `Cc1nc(N2CC3C(C2)C3(F)F)ccc1Cn1cnc(C(=O)N[C@@H]2CCc3c2ncn3C)c1` (stereo partly drawn) [Example 24, 1-[(6-{6,6-Difluoro-3-azabicyclo[3.1.0]hexan-3-yl}-2-methylpyridin-3-yl)methyl]-N-[(4R)-1-methyl-1H,4H,5H,6H-cyclopenta[d]imidazol-4-yl]-1H-imidazole-4-carboxamide], in that order: 1 nM, 181 nM and greater than 10000 nM.
Take `Cc1nc(N2CC3C(C2)C3(F)F)ccc1Cn1cc(C(=O)N[C@@H]2CCc3c2ncn3C)nn1` (stereo partly drawn) [Example 27, 1-[(6-{6,6-Difluoro-3-azabicyclo[3.1.0]hexan-3-yl}-2-methylpyridin-3-yl)methyl]-N-[(4R)-1-methyl-1H,4H,5H,6H-cyclopenta[d]imidazol-4-yl]-1H-1,2,3-triazole-4-carboxamide]: the half-maximal inhibitory concentration (IC50) against Human PKK is 0.9 nM; in assay [1], 202 nM. The compound further gave an inhibition constant Ki on human TK1 greater than 10000 nM.
In the same order, the values of `CCc1nc(N2CC3C(C2)C3(F)F)ccc1Cn1cc(C(=O)N[C@@H]2CCc3c2ncn3C)cn1` (stereo partly drawn) [Example 36, 1-[(6-{6,6-Difluoro-3-azabicyclo[3.1.0]hexan-3-yl}-2-ethylpyridin-3-yl)methyl]-N-[(4R)-1-methyl-1H,4H,5H,6H-cyclopenta[d]imidazol-4-yl]-1H-pyrazole-4-carboxamide] are 0.5 nM, 180 nM and greater than 10000 nM.
For `Cn1cnc2c1CC[C@H]2NC(=O)c1cn(Cc2ccc(N3CC4(CC4)C3)nc2C(F)F)cn1` [Example 47, 1-[(6-{5-Azaspiro[2.3]hexan-5-yl}-2-(difluoromethyl)-pyridin-3-yl)methyl]-N-[(4R)-1-methyl-1H,4H,5H,6H-cyclopenta[d]imidazol-4-yl]-1H-imidazole-4-carboxamide], in that order: 0.8 nM, 173 nM and greater than 10000 nM.
On to `COCc1nc(N2CC3CC3C2)ccc1Cn1cc(C(=O)N[C@@H]2CCc3c2ncn3C)cn1` (stereo partly drawn) [Example 49, 1-[(6-{3-Azabicyclo[3.1.0]hexan-3-yl}-2-(methoxymethyl)-pyridin-3-yl)methyl]-N-[(4R)-1-methyl-1H,4H,5H,6H-cyclopenta[d]imidazol-4-yl]-1H-pyrazole-4-carboxamide], for which the IC50 on Human PKK amounted to 2.5 nM; in assay [1] it was 254 nM. Further, the inhibition constant Ki at human TK1 is greater than 10000 nM.
Consider `CCc1nc(N2CC3(CC3)C2)ccc1Cn1cc(C(=O)N[C@@H]2CCc3c2ncn3C)cn1` [Example 51, 1-[(6-{5-Azaspiro[2.3]hexan-5-yl}-2-ethylpyridin-3-yl)methyl]-N-[(4R)-1-methyl-1H,4H,5H,6H-cyclopenta[d]imidazol-4-yl]-1H-pyrazole-4-carboxamide], for which the results for the IC50 (on Human PKK; in assay [1]) were 1 nM and 213 nM, respectively. At human TK1, the Ki is greater than 10000 nM.
The compound `Cc1cc(N2CC3CC3C2)ncc1Cn1cc(C(=O)N[C@@H]2CCc3c2ncn3C)cn1` (stereo partly drawn) [Example 113, 1-[(6-{3-Azabicyclo[3.1.0]hexan-3-yl}-4-methylpyridin-3-yl)methyl]-N-[(4R)-1-methyl-1H,4H,5H,6H-cyclopenta[d]imidazol-4-yl]-1H-pyrazole-4-carboxamide] registered an IC50 at Human PKK of 9.9 nM. On human TK1, this compound displayed an inhibitory constant (Ki) greater than 10000 nM.
Regarding `Cn1cnc2c1CC[C@H]2NC(=O)c1cn(Cc2cnc(N3CC4CC4C3)nc2CO)cn1` (stereo partly drawn) [Example 214, 1-[(2-{3-Azabicyclo[3.1.0]hexan-3-yl}-4-(hydroxymethyl)pyrimidin-5-yl)methyl]-N-[(4R)-1-methyl-1H,4H,5H,6H-cyclopenta[d]imidazol-4-yl]-1H-imidazole-4-carboxamide], the IC50 at Human PKK was 20.3 nM; in assay [1] it was 1040 nM.
For `CC(O)c1nc(N2CC3C(C2)C3(F)F)ccc1Cn1cc(C(=O)N[C@@H]2CCc3c2ncn3C)nn1` (stereo partly drawn) [Example 215, 1-[(6-{6,6-Difluoro-3-azabicyclo[3.1.0]hexan-3-yl}-2-(1-hydroxyethyl)pyridin-3-yl)methyl]-N-[(4R)-1-methyl-1H,4H,5H,6H-cyclopenta[d]imidazol-4-yl]-1H-1,2,3-triazole-4-carboxamide], in that order: 0.7 nM and 194 nM.
For `Cc1nc(N2CC3CC3C2)ccc1Cn1cc(C(=O)N[C@@H]2CCc3c2ncn3C)c(CCO)n1` (stereo partly drawn) [Example 216, 1-[(6-{3-Azabicyclo[3.1.0]hexan-3-yl}-2-methylpyridin-3-yl)methyl]-3-(2-hydroxyethyl)-N-[(4R)-1-methyl-1H,4H,5H,6H-cyclopenta[d]imidazol-4-yl]-1H-pyrazole-4-carboxamide], in that order: 1.2 nM and greater than 10000 nM.
For `COCc1nc(N2CC3CC3C2)ccc1Cc1cc(C(=O)N[C@@H]2CCc3c2ncn3C)[nH]n1` (stereo partly drawn) [Example 219, 3-[(6-{3-Azabicyclo[3.1.0]hexan-3-yl}-2-(methoxymethyl)pyridin-3-yl)methyl]-N-[(4R)-1-methyl-1H,4H,5H,6H-cyclopenta[d]imidazol-4-yl]-1H-pyrazole-5-carboxamide], the IC50 against Human PKK came out at 3.6 nM; in assay [1], 776 nM.
Take `Cn1cnc2c1CC[C@H]2NC(=O)c1cc(Cc2ccc(N3CC4CC4C3)nc2CO)n[nH]1` (stereo partly drawn) [Example 220, 3-[(6-{3-Azabicyclo[3.1.0]hexan-3-yl}-2-(hydroxymethyl)pyridin-3-yl)methyl]-N-[(4R)-1-methyl-1H,4H,5H,6H-cyclopenta[d]imidazol-4-yl]-1H-pyrazole-5-carboxamide]: the IC50 on Human PKK came out at 1.9 nM; in assay [1] it was 525 nM.
With `Cc1nc(N2CC3(CC3)C2)ncc1Cn1cc(C(=O)N[C@@H]2CCc3c2ncn3C)cn1` [Example 222, 1-[(2-{5-Azaspiro[2.3]hexan-5-yl}-4-methylpyrimidin-5-yl)methyl]-N-[(4R)-1-methyl-1H,4H,5H,6H-cyclopenta[d]imidazol-4-yl]-1H-pyrazole-4-carboxamide], the IC50 against Human PKK is 11.6 nM. The compound also gave a Ki at human TK1 of 7280 nM.

As usually defined, the IC50 is the concentration that inhibits the measured activity by half. Usually Ki stands for the dissociation constant of the complex between target and ligand, obtained from inhibition or displacement. A higher Ki goes with weaker binding.
